According to US7063946B2, “Methods, reagents, kits and apparatus for protein function analysis” (Meso Scale Technologies, LLC., priority 2001, dated 2006):

Key:
Assay type in all cases: biochemical
BTK = molecular target: T1, BTK (Homo sapiens, UniProt Q06187); assay: Kinase inhibitor profiling, pEY phosphorylation
T1 construct: specificity data for proteins generated from a library of eighteen full-length clones; host or cells: rabbit reticulocyte lysate, TnT coupled in vitro transcription/translation (cell-free)
Description: (§1) Proteins were produced in an in vitro transcription and translation reaction. […] The unbound components of the reaction containing endogenous kinases were removed by three washes with TT-buffer (25 mM Tris-HCl buffer pH 7.4 and 0.004% Triton), two five minutes washings with high-salt wash buffer (25 mM Tris-HCl buffer pH 7.4, 0.004% Triton, 1M NaCl and 5 mM DTT) and 3 more washes with TT-buffer. To these immobilized and purified proteins a tyrosine kinase substrate, 5 nM pEY (poly Glu-Tyr, Sigma, MO), was added in a 50 μl reaction solution containing 5 mM MgCl2, 5 mM MnCl2, 100 μM ATP, 25 mM Tris-HCl buffer pH 7.4, 0.05 mM Na3VO4, 0.004% TritonX-100, 2 mM DTT and EDTA-free protease inhibitor (Roche Molecular Biochemicals). This mixture was incubated with shaking at room temperature overnight to allow phosphorylation of the pEY substrate by the immobilized kinases. Following this incubation, 45 μl of this mixture was transferred to a streptavidin or avidin-coated NPT IPR plate coated with biotinylated anti-phosphotyrosine antibody (PY20, Zymed labs, CA) followed by incubation for 30 minutes at room temperature to allow the binding of the phosphorylated pEY substrate to the PY20 coated NPT plate. Following this binding step, 50 ng Sulfo-TAG labeled anti-phosphotyrosine in buffer containing 25 mM Tris-HCl buffer pH 7.4, 5 mM MgCl2, 0.05 mM Na3VO4, 0.004% TritonX-100, 2 mM DTT and 0.05% IgG was added followed by incubation at room temperature for 30 mm. The unbound reagents were removed by one time washing with water, and the TAG label was detected in presence of 150 μl IPR assay buffer (0.4 mM Gly-Gly buffer, pH 7.8, 1 mM EDTA, 0.1 M TPA). The ECL signals were measured using an imaging plate reader.
(§2) The unbound components of the translation reaction (including any endogenous kinases) were removed by 3 washes with TT-buffer (25 mM Tris-HCl buffer pH 7.4 and 0.004% Triton), two five minutes washes with high-salt wash buffer (25 mM Tris-HCl buffer pH 7.4, 0.004% Triton, 1M NaCl and 5 mM DTT) and 3 washes with TT-buffer. […] The mixture was incubated at room temperature for 10 mm before starting the kinase reaction by adding 25 μl of 200 μM ATP in buffer A. This mixture was incubated with intermittent shaking at room temperature for 2 hours to overnight to allow (a) phosphorylation of the pEY substrate and (b) autophosphorylation of the immobilized kinases. Autophosphorylation and phosphorylation of the pEY was measured as described in Examples 7 and 8.
(§3) The ECL signal in control wells produced by tyrosine kinases was compared to the wells containing inhibitor compounds.

LCK [1] = molecular target: T2, LCK (Homo sapiens, UniProt P06239); assay: Kinase inhibitor profiling, autophosphorylation
T2 construct: specificity data for proteins generated from a library of eighteen full-length clones; host or cells: rabbit reticulocyte lysate, TnT coupled in vitro transcription/translation (cell-free)
Description: To promote autophosphorylation in these immobilized and purified proteins, Mn++ ions were added in a 50 μl reaction containing 5 mM MgCl2, 5 mM MnCl2, 100 μM ATP, 25 mM Tris-HCl buffer pH 7.4, 0.05 mM Na3VO4, 0.004% TritonX-100, 2 mM DTT and EDTA-free protease inhibitor (Roche Molecular Biochemicals). This mixture was incubated with shaking at room temperature overnight to allow autophosphorylation. Following this incubation, wells were washed 2 times with TT-buffer and 2 times with water. Following this step, 50 ng Sulfo-TAG labeled anti-phosphotyrosine in buffer containing 25 mM Tris-HCl buffer pH 7.4, 5 mM MgCl2, 0.05 mM Na3VO4, 0.004% TritonX-100, 2 mM DTT and 0.05% IgG in a final volume of 50 μl was added followed by incubation at room temperature for 45 min. The unbound reagents were removed by one time washing with water, and the TAG label was detected in presence of 150 μl IPR assay buffer (0.4 mM Gly—Gly buffer, pH 7.8, 1 mM EDTA, 0.1 M TPA). The ECL signals were measured using an imaging plate reader.
as §2, with “kinases.” for “kinases. Autophosphorylation and phosphorylation of the pEY was measured as described in Examples 7 and 8.”
as §3

LCK [2] = molecular target: T2, LCK; assay: Kinase inhibitor profiling, pEY phosphorylation
Description: as §1, §2, §3

T1 sequence (Q06187 whole entry): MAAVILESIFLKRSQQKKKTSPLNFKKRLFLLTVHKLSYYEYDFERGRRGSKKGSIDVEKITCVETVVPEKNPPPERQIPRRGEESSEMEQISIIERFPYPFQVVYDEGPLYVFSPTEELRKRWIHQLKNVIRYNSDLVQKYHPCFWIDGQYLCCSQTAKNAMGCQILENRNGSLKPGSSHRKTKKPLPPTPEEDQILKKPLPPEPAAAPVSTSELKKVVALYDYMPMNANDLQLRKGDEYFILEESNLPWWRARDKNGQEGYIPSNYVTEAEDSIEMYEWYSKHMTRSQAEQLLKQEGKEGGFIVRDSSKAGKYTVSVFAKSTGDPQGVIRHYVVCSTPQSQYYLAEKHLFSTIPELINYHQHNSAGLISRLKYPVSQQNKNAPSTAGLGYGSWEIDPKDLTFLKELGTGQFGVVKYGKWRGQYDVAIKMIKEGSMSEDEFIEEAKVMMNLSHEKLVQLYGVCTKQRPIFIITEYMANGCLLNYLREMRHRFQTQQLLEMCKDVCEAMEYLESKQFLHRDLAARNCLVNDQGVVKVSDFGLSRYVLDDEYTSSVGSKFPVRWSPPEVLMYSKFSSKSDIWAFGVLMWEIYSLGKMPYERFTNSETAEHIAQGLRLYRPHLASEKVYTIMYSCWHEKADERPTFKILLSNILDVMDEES
T2 sequence (P06239 whole entry): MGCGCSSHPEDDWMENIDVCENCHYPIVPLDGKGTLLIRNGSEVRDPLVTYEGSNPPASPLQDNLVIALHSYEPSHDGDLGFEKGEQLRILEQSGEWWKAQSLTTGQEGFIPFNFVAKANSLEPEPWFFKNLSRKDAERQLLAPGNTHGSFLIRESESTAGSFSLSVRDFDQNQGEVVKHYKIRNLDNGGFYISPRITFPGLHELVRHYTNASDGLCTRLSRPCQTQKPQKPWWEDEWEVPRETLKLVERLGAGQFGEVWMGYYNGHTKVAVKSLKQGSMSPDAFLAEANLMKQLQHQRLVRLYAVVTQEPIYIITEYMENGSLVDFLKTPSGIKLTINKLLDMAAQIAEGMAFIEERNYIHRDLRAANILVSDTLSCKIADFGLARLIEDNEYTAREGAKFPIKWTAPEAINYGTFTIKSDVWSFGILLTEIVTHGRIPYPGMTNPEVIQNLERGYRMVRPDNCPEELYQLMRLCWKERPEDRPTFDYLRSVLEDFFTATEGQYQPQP

Molecule: CC(C)(C)c1cc(C=C(C#N)C#N)cc(Br)c1O [AG-1024]
- Inhibition specificity towards pEY phosphorylation at 10X IC50, BTK (BTK): H (high inhibition (“H”=less than 25% of the activity remaining))

Molecule: Cc1cc2ncc(-c3ccc(O)c(O)c3)nc2cc1C [AG-1433]
- Inhibition specificity towards pEY phosphorylation at 10X IC50, BTK (BTK): H (high inhibition (“H”=less than 25% of the activity remaining))
- Inhibition specificity towards Autophosphorylation at 10X IC50, LCK (LCK [1]): H (high inhibition (“H”=less than 25% of the activity remaining))

Molecule: COc1c(C=O)c(O)cc2c1C(=O)c1ccccc1C2=O [Damnacanthal]
- Inhibition specificity towards pEY phosphorylation at 10X IC50, BTK (BTK): H (high inhibition (“H”=less than 25% of the activity remaining))

Molecule: Cc1ccc(-c2nn(C(C)(C)C)c3ncnc(N)c23)cc1 [PP1]
- Inhibition specificity towards pEY phosphorylation at 10X IC50, LCK (LCK [2]): M (medium inhibition (“M”=between 25 to 50% of the activity remaining))

Molecule: COc1cc2ncnc(Nc3ccc(Cl)cc3F)c2cc1OC [VEGFR inhibitor]
- Inhibition specificity towards pEY phosphorylation at 10X IC50, BTK (BTK): M (medium inhibition (“M”=between 25 to 50% of the activity remaining))
- Inhibition specificity towards pEY phosphorylation at 10X IC50, LCK (LCK [2]): H (high inhibition (“H”=less than 25% of the activity remaining))
- Inhibition specificity towards Autophosphorylation at 10X IC50, LCK (LCK [1]): L (low inhibition (“L”=between 50–75% of the activity remaining))

Molecule: COc1cc2ncnc(Nc3ccc(O)cc3)c2cc1OC [WHI-P131]
- Inhibition specificity towards pEY phosphorylation at 10X IC50, BTK (BTK): M (medium inhibition (“M”=between 25 to 50% of the activity remaining))
- Inhibition specificity towards pEY phosphorylation at 10X IC50, LCK (LCK [2]): H (high inhibition (“H”=less than 25% of the activity remaining))
- Inhibition specificity towards Autophosphorylation at 10X IC50, LCK (LCK [1]): M (medium inhibition (“M”=between 25 to 50% of the activity remaining))

Molecule: Erbstatin analog
- Inhibition specificity towards Autophosphorylation at 10X IC50, LCK (LCK [1]): L (low inhibition (“L”=between 50–75% of the activity remaining))
